Laboratory results from patent US20150250167A1, “COMPOSITION FOR NOXIOUS ORGANISMS-CONTROLLING AGENT AND METHOD FOR USING THE SAME” (priority 2001, published 2015).

Columns and labels:
[1] = test system: Smaller Tea Tortrix (Adoxophyes orana fosciota); assay: Insecticidal test on smaller tea tortrix, tea leaf dipping; format: in vivo; conditions: single agent 0.3 ppm, 4th instar larvae, 25° C.
Procedure: Insecticidal Test on Smaller Tea Tortrix (Adoxophyes orana fosciota)
Tea leaves were dipped in a solution of a chemical diluted to a prescribed concentration for 30 seconds. […] Four days and seven days after the treatment, the number of alive insects were counted, from which percentage of death was calculated.

[2] = test system: Green Peach Aphid (Myzus persicae); assay: Insecticidal test on green peach aphid, spraying of Chinese cabbage, control value; format: in vivo; conditions: 100 ppm, single agent, 6 days after spraying
[3] = test system: Brown Rice Planthopper (Nilaparvata lugens); assay: Insecticidal test on brown rice planthopper, rice seedling dipping; format: in vivo; conditions: 100 ppm, single agent; for Death rate (%) After 1 days: after 1 day
Excerpt: Insecticidal Test on Brown Rice Planthopper (Nilaparvata lugens)
Rice seedlings (variety: Nihombare) were dipped in a solution of an agent diluted to a predetermined concentration for 30 seconds. After air-dryness, each seedling was introduced into a glass-made test tube having a diameter of 1.8 cm and a height of 20 cm, and inoculated with ten 3rd inster nimphs of brown rice planthopper. Then, the test tube was stoppered with cotton. One day after and four days after the treatment, the number of alive insects was counted, based on which the insect death rate was calculated.

[4] = test system: Southern Root-Knot Nematode (Meloidogyne incognita); assay: Test for the effect on southern root-knot nematode, soil blending with granular preparation; format: in vivo; conditions: 300 g ai/10a, single agent, 60 days after treatment
Excerpt: Test for the Effect on Southern Root-Knot Nematode (Meloidogyne incognita)
Two killograms of a soil polluted with southern root-knot nematode was blended with a predetermined dose of a granular preparation. The mixture was filled into a 1/5,000 are Wagner pot. After sowing melon seeds and carrying out the treatment of the present invention, the pot was left to stand in a greenhouse. Sixty days after the treatment, 25 g of the soil was sampled out, the nematode was separated therefrom according to the method of Berman, and the numbers of nematodes were counted after 48 hours.
In the tables, “ai” means active ingredient.

[5] = test system: Rice Water Weevil (Lissorhoptrus oryzophilus); assay: Control of rice water weevil on paddyfield rice by nursery box application, extent of injury; format: in vivo; conditions: 0.5 g ai/Box, single agent
Rice Blast = conditions: in vivo
[6] = test system: Small Brown Planthopper (Laodelphax striatellus); assay: Control of small brown planthopper on paddyfield rice by nursery box application, number of parasitic insects; format: in vivo; conditions: 0.5 g ai/Box, single agent
Procedure: (§1) Test for the Control of Small Brown Planthopper (Laodelphax striatellus) and Rice Leafroller (Cnaphalocrosis medinalis) on Paddyfield Rice Plant by Nursery Box Application
(§2) Fifty grams of a granular preparation was applied to rice plant (variety: Nihombare) cultured in a nursery box, after which the rice plant was transplanted to the main paddy field (in the middle of May). The controlling effect against small brown planthopper was evaluated by investigating the number of parasitic insects on 30 hills per each plot, 40 days and 60 days after the transplantation. The controlling effect against rice leafroller was evaluated by investigating the number of injured leaves on 100 hills per each plot, 50 days after the transplantation.

[7] = test system: Rice Leafroller (Cnaphalocrosis medinalis); assay: Control of rice leafroller on paddyfield rice by nursery box application, number of injured leaves; format: in vivo; conditions: 0.5 g ai/Box, single agent
Procedure: as §1, §2

[8] = test system: Diamondback Moth (Plutella xyloxtella); assay: Control of diamondback moth on cabbage by soil treatment, number of parasitic insects; format: in vivo; conditions: 5 mg ai/hill, 21 days after transplanting
Procedure: (§3) Test for the Control of Diamondback Moth (Plutella xyloxtella) and Aphid on Cabbage by Soil Treatment
(§4) A granular preparation was mixed into bed soil, and the mixture was filled into a cell seedling box and sown with seeds of cabbage (variety: YR Seitoku). Otherwise, cell seedling planted cabbage was treated with the granular agent either by a treatment in the foliage leaf extraction period, or by a pre-transplanting treatment, or by a pricking-in hole treatment, or by a plant foot treatment after the planting. Twenty one days after the transplanting (in the middle of June), the number of parasitic insects was counted on 30 hills in the case of diamondback moth and on 10 hills in the case of aphid.

Aphid = assay: Control of aphid on cabbage by soil treatment, number of parasitic insects; format: in vivo; conditions: 5 mg ai/hill, 21 days after transplanting
Procedure: as §3
as §4, with “Twenty one days after the transplanting (in the middle of June), the number of parasitic insects was counted on 30 hills in the case of diamondback moth and on 10 hills in the case of aphid.” left out

Cutworm = assay: Test for the effect against cutworm on beet, drench, number of injured hills per 100 hills; format: in vivo; conditions: 15 g ai/10a
Procedure: Test for the Effect Against Cutworm on Beet
Beet seedlings (variety: Monoace S) planted in a paper pot was treated with 3 L/m^2 of a solution of an agent diluted to a predetermined concentration, by the method of drench. Just after the drench, the plant was set. Predetermined days after the setting, the number of injured hills per 100 hills was counted.

[9] = test system: Citrus Yellow Thrips (Frankliniella occidentalis); assay: Control of citrus yellow thrips on egg plant by combined use with natural enemy pesticide, number of thrips; format: in vivo; conditions: 100 ppm, spray
[10] = test system: Resistant Strain of Two-Spotted Spider Mite; conditions: 100 ppm, single agent, 2 days after spraying
[11] = true leaf extraction season treatment

SMILES	Death rate (%) After 4 days [1] [%]	Death rate (%) After 7 days [1] [%]	Control degree (%) [2] [%]	Death rate (%) After 1 days [3] [%]	Death rate (%) After 5 days [3] [%]	Number of nematodes per 25 g of soil sample [4]	Extent of injury After 21 days [5]	Areal rate of disease spot (%) After 60 days (Rice Blast) [%]	Number of parasitic planthoppers per 30 hills After 40 days [6]	Number of parasitic planthoppers per 30 hills After 60 days [6]	Percentage of injured leaves (%) After 50 days [7] [%]	Number of parasitic insects per 30 hills, Diamondback moth ([8]; plant foot treatment)	Number of parasitic insects per 30 hills, Diamondback moth ([8]; pre-transplanting treatment)	Number of parasitic insects per 30 hills, Diamondback moth ([8]; pricking-in hole treatment)	Number of parasitic insects per 30 hills, Diamondback moth ([8]; soil incorporation)	Number of parasitic insects per 30 hills, Diamondback moth [8, 11]	Number of parasitic insects per 30 hills, Aphid (Aphid; plant foot treatment)	Number of parasitic insects per 30 hills, Aphid (Aphid; pre-transplanting treatment)	Number of parasitic insects per 30 hills, Aphid (Aphid; pricking-in hole treatment)	Number of parasitic insects per 30 hills, Aphid (Aphid; soil incorporation)	further results
Cc1cc(OC(F)(F)F)ccc1NC(=O)c1cccc(Cl)c1C(=O)NC(C)C [Compound 20]	0	25	0	0	0	28	37.4	8.1	315	354	0.15	5	6	3	4	2	501	478	499	512	Number of parasitic insects per 30 hills, Aphid (Aphid; [11]): 498; Number of injured hills per 100 hills, After 60 days (Cutworm): 0; Number of injured hills per 100 hills, After 90 days (Cutworm): 7; Number of injured hills per 100 hills, After 120 days (Cutworm): 20; Number of parasitic insects per 20 leaves, After 60 days [9]: 21; Number of parasitic insects per 20 leaves, After 90 days [9]: 28; Number of parasitic insects per 20 leaves, After 120 days [9]: 49; Death rate (%) [10]: 0%
CC(C)NC(=O)c1c(I)cccc1C(=O)Nc1ccc(C(F)(F)F)cc1Cl [Compound 39]	0	20	0	0	0	34	38.9	8.2	343	372	0.25	2	4	3	3	2	456	457	437	513	Number of parasitic insects per 30 hills, Aphid (Aphid; [11]): 487; Number of injured hills per 100 hills, After 60 days (Cutworm): 0; Number of injured hills per 100 hills, After 90 days (Cutworm): 6; Number of injured hills per 100 hills, After 120 days (Cutworm): 17; Number of parasitic insects per 20 leaves, After 60 days [9]: 19; Number of parasitic insects per 20 leaves, After 90 days [9]: 32; Number of parasitic insects per 20 leaves, After 120 days [9]: 58; Death rate (%) [10]: 0%
Cc1cc(C(F)(F)F)ccc1NC(=O)c1cccc(I)c1C(=O)NC(C)C [Compound 40]	0	25	0	0	0	33	39.0	7.9	322	358	0.33	3	1	1	2	1	478	477	486	472	Number of parasitic insects per 30 hills, Aphid (Aphid; [11]): 510; Number of injured hills per 100 hills, After 60 days (Cutworm): 0; Number of injured hills per 100 hills, After 90 days (Cutworm): 9; Number of injured hills per 100 hills, After 120 days (Cutworm): 23; Number of parasitic insects per 20 leaves, After 60 days [9]: 22; Number of parasitic insects per 20 leaves, After 90 days [9]: 31; Number of parasitic insects per 20 leaves, After 120 days [9]: 52; Death rate (%) [10]: 0%
